Experimental data taken from US8507420B2, “Solvent composition” (Toyota Jidosha Kabushiki Kaisha, priority 2009, dated 2013).
“Also recorded” adds a separate entry of the source.

How the values were obtained:
[1] = Thermal stability of SOD mimetic compounds (retained SOD activity after thermal process in solvents/oils); format: physicochemical; details: for decline in activity after thermal process: dehydrated ethanol, 60 minutes, FIG. 4; for retained activity after thermal process / retained activity: 120 minutes; for retained activity after thermal process: solvent not stated
From the text: (§1) In this example, Mn-cpx3, Mn-TBAP, Mn-TMPyP and Mn-TM-2-PyP were purchased from Aldrich Company, and were used as SOD mimetic compounds. These compounds are low-molecular complex having π-conjugate system. These compounds are basically water-soluble, and are also soluble in ethanol and in lubricating oils. In the case where an SOD mimetic compound was to be dissolved in ethylene glycol, and in a food oil containing vegetable sterol and glycerin ester as main components, the SOD mimetic compound was first dissolved in ethanol, and then the ethanol solution was added into ethylene glycol and a food oil. In the case where an SOD mimetic compound was to be dissolved in an engine oil (trade name: Eneos Motor Oil), the SOD mimetic compound was firstly dissolved in dimethyl sulfoxide (DMSO), and then the DMSO solution was added into the engine oil. As for the concentration conditions for thermal stability, investigation was performed in the presence of 1 to 10 μg/mL of an SOD mimetic compound in the water-based solution and 10 to 50 μg/mL of an SOD mimetic compound in the oil-based solution, with 10% of ethanol or DMSO, in the temperature range of 50 to 140° C.
The SOD activity of the SOD mimetic compounds was measured by using as an index the oxidation of a water-soluble tetrazolium salt (WST) by oxygen radicals generated from xanthin-xanthin oxidase. Specifically, the WST was used as a substrate of the oxidation by oxygen radicals, and the activity measurement was performed by using as an index the difference in the production of water-soluble tetrazolium formazan made by the presence and the absence of the SOD mimetic compound (see the following document: H. Ueda, D. Kawana, S. Maeda and M. Sawamura, Biosci. Biotechnol. Biochem., 63, 485-488, 1999). As the WST is oxidized to become water-soluble tetrazolium formazan, ultraviolet absorption occurs at 450 nm. Therefore, by measuring this ultraviolet absorption, the oxidation reaction by oxygen radicals can easily be measured. The activity measurement buffer was a 35 mM sodium carbonate solution (pH 10.2) containing 0.17 mM of xanthin and 0.11 mM of EDTA. The oxidation substrate used was 0.24 mM of the WST. The SOD mimetic compounds were dissolved in ethanol or DMSO. The concentrations thereof at the time of measurement of activity were 0.1 to 0.8 μg/mL.
In this example, the vegetable food oil used was diacyl glycerol. Mn-TMPyP retained 50% of the activity at 70° C. after 120 minutes, and 40% of the activity at 100° C. after 120 minutes. […] It has become clear that Mn-cpx3 is particularly excellent in the SOD-mimetic activity and the thermal stability in food oil.
With regard to Mn-cpx3, which was considered to be the most excellent in activity and thermal stability, the stability thereof in other oil solutions was investigated. […] However, in engine oil, the stability sharply declines to about 10 to 20%.

[2] = SOD activity measurement (WST oxidation by oxygen radicals from xanthin-xanthin oxidase, absorption at 450 nm); format: biochemical; details: FIG. 2
From the text: In this activity measurement system, the WST used as the oxidation substrate can be considered to be a model compound as the substance that is subject to oxidation by oxygen radicals, that is, as the functional substance. […]

[3] = Solubility of SOD mimetic compounds in water, ethanol, oils; format: physicochemical; details: solvent as stated in value
From the text: as §1

[4] = vegetable food oil (diacyl glycerol), 100° C., FIG. 5

Compound | decline in activity after thermal process ([1]; 70° C.) | relative activity per unit weight with reference to the enzyme activity of the PEG-modified A. per SOD ([2]; after the process in ethanol at 50° C. for 10 minutes) [times] | relative activity per unit weight with reference to the enzyme activity of the PEG-modified A. per SOD ([2]; in water) [times] | solubility [3] | retained activity after thermal process ([1]; 50° C.) [%] | retained activity after thermal process ([1]; 100° C.) [%] | retained activity ([1]; ethylene glycol, 140° C., FIG. 6) [%] | retained activity [1, 4] [%] | retained activity ([1]; vegetable food oil (diacyl glycerol), 140° C., FIG. 5) [%] | stability in water-based ethanol ([1]; water-based ethanol) | retained activity ([1]; vegetable food oil (diacyl glycerol), 70° C., FIG. 5) [%]
O=C(O)c1ccc(C2=C3C=CC(=N3)C(c3ccc(C(=O)O)cc3)=c3ccc([nH]3)=C(c3ccc(C(=O)O)cc3)c3ccc([n-]3)C(c3ccc(C(=O)O)cc3)c3ccc2[n-]3)cc1.[Cl-].[Mn+3] (stereo not shown) [Mn-TBAP, Mn(III) tetrakis(4-benzoic acid)porphyrin chloride] | substantially no decline in the activity | – | – | – | – | – | – | – | – | – | –
manganese (Mn) complex of 7-hydroxyflavone [Mn-cpx3] | substantially no decline in the activity | 850 | 460 | soluble in ethylene glycol and in vegetable oil; also recorded: soluble even in oil solutions | ~100 | ≥ 70 | 70 | 60 | 50 | highly stable | –
C[n+]1ccc(-c2c3nc(c(-c4cc[n+](C)cc4)c4ccc([nH]4)c(-c4cc[n+](C)cc4)c4nc(c(-c5cc[n+](C)cc5)c5ccc2[nH]5)C=C4)C=C3)cc1.[Mn+3] [Mn-TMPyP, Mn(III) tetrakis(1-methyl-4-pyridyl)porphyrin] | – | – | – | – | – | – | – | 40 | – | – | 50
